{"source": "paper PMC7016805", "about": "“RK-33 Is a Broad-Spectrum Antiviral Agent That Targets DEAD-Box RNA Helicase DDX3X” (Cells, 2020)", "biological_target": "T1, DEAD-box helicase 3 X-linked (DDX3X) (Homo sapiens, UniProt O00571)", "T1 construct": "residues 1–580, N-terminal 6His tag", "T1 sequence (O00571 1-580)": "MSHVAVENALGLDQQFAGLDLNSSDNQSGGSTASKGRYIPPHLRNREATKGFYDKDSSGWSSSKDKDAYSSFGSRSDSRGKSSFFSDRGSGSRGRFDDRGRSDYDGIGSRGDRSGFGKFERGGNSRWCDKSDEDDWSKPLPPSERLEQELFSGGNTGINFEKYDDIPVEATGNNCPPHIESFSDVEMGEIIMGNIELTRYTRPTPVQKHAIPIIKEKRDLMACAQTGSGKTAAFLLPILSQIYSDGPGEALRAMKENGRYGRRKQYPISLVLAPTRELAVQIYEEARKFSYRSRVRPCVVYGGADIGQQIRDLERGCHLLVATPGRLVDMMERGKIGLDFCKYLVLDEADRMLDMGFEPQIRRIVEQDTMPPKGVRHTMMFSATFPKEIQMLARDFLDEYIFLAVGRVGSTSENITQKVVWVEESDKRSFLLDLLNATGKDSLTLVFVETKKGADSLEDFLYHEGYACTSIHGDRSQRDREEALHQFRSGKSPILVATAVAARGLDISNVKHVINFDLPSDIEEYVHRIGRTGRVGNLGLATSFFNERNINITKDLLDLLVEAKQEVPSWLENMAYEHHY", "assay": "ITC (one-site model); supported by multi-wavelength AUC, ATPase assay (IC50 […]) and RNA unwinding assay (IC50 […])", "assay_type": "binding", "data": [{"smiles": "COc1ccc(Cn2cnc3c4ncn(Cc5ccc(OC)cc5)c4nc(=O)nc32)cc1", "note": "[RK-33]", "values": [{"measurement": "Kd", "value": 33, "unit": "µM"}]}]}
